Data published in patent US11091441B2, “Solid state crystalline forms of a selective potassium channel modulator” (Xenon Pharmaceuticals Inc., priority 2019, dated 2021).
Values joined by “and” are separate entries in the source; they are usually repeats but may differ in a detail not shown here. Identical values can stand only once.

How the values were obtained:
Assay type in all cases: physicochemical
[1] = Variable temperature XRPD (VT-XRPD): polymorphic form at each temperature
Procedure: VT-XRPD analysis was carried out on a Philips X'Pert Pro Multipurpose diffractometer equipped with a temperature chamber. The samples were loaded onto the VT stage and scanned between 4 and 35.99 °2θ using Cu K radiation (α1 λ=1.54060 Å; α2=1.54443 Å; β=1.39225 Å; α1:α2 ratio=0.5) running in Bragg-Brentano geometry (step size 0.008 °2θ) using 40 kV/40 mA generator settings. Measurements were performed at various temperature profiles. Any holds at specific temperatures are described in the temperature profiles for individual samples.
In another embodiment, VT-XRPD analysis of Compound A Form 11 was carried out using the heating program below in Table 11.

[2] = Aqueous solubility of solid state forms (with post-solubility pH and XRPD of excess solid); conditions: for pH of the sample post-solubility: after aqueous solubility test; for solid form of excess solid post aqueous solubility analysis (XRPD): excess solid analyzed by XRPD
[3] = Gravimetric Vapour Sorption (GVS), hygroscopicity, with post-GVS XRPD; conditions: for GVS uptake: 25° C.; for solid form post-GVS (XRPD): material analyzed post-GVS by XRPD
Procedure: Approximately 10-20 mg of sample was placed into a mesh vapor sorption balance pan and loaded into an IGASorp Moisture Sorption Analyser balance by Hiden Analytical. The sample was subjected to a ramping profile from 40-90% relative humidity (RH) at 10% increments, maintaining the sample at each step until a stable weight had been achieved (98% step completion, minimum step length 30 minutes, maximum step length 60 minutes) at 25° C. After completion of the sorption cycle, the sample was dried using the same procedure to 0% RH, and finally taken back to the starting point of 40% RH, using the same parameters outlined above. Two complete cycles were performed. The weight change during the sorption/desorption cycles were plotted, allowing for the hygroscopic nature of the sample to be determined.

[4] = Carr's index (powder flowability) of micronized material; conditions: micronized to d50≤3 μm and d90≤5 μm; for Flowability: class from Carr's index
Procedure: A widely-used metric for how well a powder flows is Carr's index (see, for example, Wang, Y. B. and Williams, R. O. III, “Powders” in Remington: Essentials of Pharmaceutics, Felton, L., ed., London: Pharmaceutical Press, 2013 at pp. 422-423). The bulk density of a powder is measured, along with its corresponding tapped density (after allowing the powder to be compressed in a standard tap density tester, such as the Gardco JV1000, Paul N. Gardner Company, Pompano Beach, Fla., according to a standard method such as that described in Chapter 616 of the United States Pharmacopeia). Once the bulk and tapped densities of a powder have been determined experimentally, Carr's index can be calculated from the following equation: Carr's index=(tapped density−bulk density)/tapped density×100.

[5] = Stability studies: seeded slurry trials, XRPD of the solid; conditions: substance used as seed material
Procedure: Samples of the Compound A Form slurries and the Compound A Form 11 slurries were taken for XRPD analysis after 24 hours at 40° C., after 2 hours at 5° C. and after 24 hours at 5° C.

[6] = 25° C., final scan after cooling from the top temperature

Structure (SMILES)	VT-XRPD Polymorphic Form [1, 6]	VT-XRPD Polymorphic Form ([1]; 25° C., initial scan)	VT-XRPD Polymorphic Form ([1]; 50° C.)	VT-XRPD Polymorphic Form ([1]; 100° C.)	VT-XRPD Polymorphic Form ([1]; 160° C.)	VT-XRPD Polymorphic Form ([1]; 165° C.)	VT-XRPD Polymorphic Form ([1]; 170° C.)	VT-XRPD Polymorphic Form ([1]; 180° C.)	pH of the sample post-solubility [2]	solid form of excess solid post aqueous solubility analysis (XRPD) [2]	hygroscopicity by GVS analysis [3]	solid form post-GVS (XRPD) [3]	Carr's index [4]	Flowability [4]	aqueous solubility [2] [mg/mL]	GVS uptake ([3]; at 90% RH) [%]	Solid after 2 hours at 5° C. (XRPD) ([5]; slurry in 1-Propanol)	Solid after 24 hours at 5° C. (XRPD) ([5]; slurry in 1-Propanol)	Solid after 2 hours at 5° C. (XRPD) ([5]; slurry in Ethanol)	Solid after 24 hours at 5° C. (XRPD) ([5]; slurry in Ethanol)	further results
Cc1cc(N2CCc3cc(F)ccc3C2)cc(C)c1NC(=O)CC(C)(C)C [Compound A Form 2, N-(4-(6-fluoro-3,4-dihydroisoquinolin-2(1H)-yl)-2,6-dimethylphenyl)-3,3-dimethylbutanamide]	Amorphous	Form 2	Form 2	Form 2	Partially crystalline	Partially crystalline	Amorphous	Amorphous	6.4	Compound A Form 2	slightly hygroscopic	Compound A Form 2	–	–	–	–	–	–	–	–	VT-XRPD Polymorphic Form ([1]; 180° C. (post 10 minute hold)): Amorphous; solubility ([2]; water, thermodynamic from solid): < 100 µg/mL; GVS uptake ([3]; between 0-90% RH): 0.37%
Cc1cc(N2CCc3cc(F)ccc3C2)cc(C)c1NC(=O)CC(C)(C)C [Compound A Form 4, N-(4-(6-fluoro-3,4-dihydroisoquinolin-2(1H)-yl)-2,6-dimethylphenyl)-3,3-dimethylbutanamide]	Form 9	Form 4	Form 4	Form 4	–	–	–	–	6.3 and 4.9	mixture of Compound A Form 4 and Compound A Form 11	slightly hygroscopic	Compound A Form 4	8	excellent	< 0.1	0.4	Form 4	Form 4	Form 4	Form 4	VT-XRPD Polymorphic Form ([1]; 60° C.): Form 4; VT-XRPD Polymorphic Form ([1]; 70° C.): Form 4; VT-XRPD Polymorphic Form ([1]; 80° C.): Form 4; VT-XRPD Polymorphic Form ([1]; 95° C.): Form 4; VT-XRPD Polymorphic Form ([1]; 110° C. (5 minute hold)): Form 4 +; VT-XRPD Polymorphic Form ([1]; 120° C. (5 minute hold)): Form 4 +; VT-XRPD Polymorphic Form ([1]; 130° C. (5 minute hold)): Form 4 +; VT-XRPD Polymorphic Form ([1]; 140° C. (5 minute hold)): Form 9; Solid after 24 hours at 40° C. (XRPD) ([5]; slurry in 1-Propanol): Form 2 + 4; Solid after 24 hours at 40° C. (XRPD) ([5]; slurry in Ethanol): Form 4
Cc1cc(N2CCc3cc(F)ccc3C2)cc(C)c1NC(=O)CC(C)(C)C [Compound A Form 9, N-(4-(6-fluoro-3,4-dihydroisoquinolin-2(1H)-yl)-2,6-dimethylphenyl)-3,3-dimethylbutanamide]	Amorphous	Form 9	Form 9	Form 9	–	Partially crystalline	Partially crystalline	Amorphous	7.3	converted to Compound A Form 4	slightly hygroscopic	Compound A Form 9	–	–	< 0.1	0.8	–	–	–	–	VT-XRPD Polymorphic Form ([1]; 150° C.): Form 9; VT-XRPD Polymorphic Form ([1]; 155° C.): Form change noted-Similar to Form 9
Cc1cc(N2CCc3cc(F)ccc3C2)cc(C)c1NC(=O)CC(C)(C)C [Compound A Form 11, N-(4-(6-fluoro-3,4-dihydroisoquinolin-2(1H)-yl)-2,6-dimethylphenyl)-3,3-dimethylbutanamide]	Amorphous	Form 11	Form 11	Form 11	Partially crystalline	Partially crystalline	Partially crystalline	Partially crystalline	–	–	slightly hygroscopic	mixture of Compound A Form 4 and Compound A Form 11	–	–	–	0.5	Form 4	Form 4	Form 4	Form 4	VT-XRPD Polymorphic Form ([1]; 150° C.): Form change; VT-XRPD Polymorphic Form ([1]; 155° C.): Partially crystalline; VT-XRPD Polymorphic Form ([1]; 190° C.): Amorphous; Solid after 24 hours at 40° C. (XRPD) ([5]; slurry in Ethanol): Form 2
Cc1cc(N2CCc3cc(F)ccc3C2)cc(C)c1NC(=O)CC(C)(C)C [Compound A, N-(4-(6-fluoro-3,4-dihydroisoquinolin-2(1H)-yl)-2,6-dimethylphenyl)-3,3-dimethylbutanamide]	–	–	–	–	–	–	–	–	–	–	–	–	36	very poor	–	–	–	–	–	–	–
